{"source": "patent US10111880B2", "about": "“Compounds for the treatment of diabetes and disease complications arising from same” (BEN-GURION UNIVERSITY OF THE NEGEV RESEARCH AND DEVELOPMENT …, priority 2013, dated 2018)", "format_in_all_cases": "in vivo, mouse", "key": {"[1]": {"test_system": "STZ-induced diabetic ICR mice", "test": "Blood glucose over time in STZ mice, short course (2 weeks) AGS treatment with or without insulin", "description": "(§1) Eight weeks-old female ICR mice were injected intraperitoneally (IP) with Streptozotocin (STZ), at a dose of 40 mg/Kg, for 5 consecutive days. The following day and onward, mice were administered the AGS compounds (499 or 500, as indicated), at a dose of 6 mg/Kg, either subcutaneously or orally, every other day. Blood glucose levels were monitored daily.\n(§2) After the establishment of diabetes (i.e. three consecutive blood glucose measurements of >200 mg/dL), mouse groups were further sub-divided into 2 sub-groups, one of each received insulin (gradual administration of 0.5-6 units/Kg, over a period of 2 weeks) subcutaneously, every other day. Blood glucose levels were monitored daily."}, "[2]": {"test_system": "insulin expressing beta islets", "test": "Immunofluorescence of pancreatic slices with anti-insulin antibody, insulin expressing beta islets in mice", "description": "The light grey (originally red) stains insulin producing cells, and the darker grey (originally blue) is for DAPI staining. Density of insulin staining per area was measured using “Image J” software (D-E). The results are mean±S.E.; n=4. ***p<0.005. Magnification: ×10."}, "[3]": {"test_system": "STZ-induced diabetic ICR mice", "test": "Blood glucose in STZ-induced diabetic ICR mice, long-term AGS treatment (5 months) with or without insulin", "design": "Blood Glucose At 101 day / Blood Glucose At 111 day: unit: mg/dL", "conditions": "for % reduction in blood glucose level / Blood glucose level Average: after 12 hours fast, day 142; for Blood glucose level Average: in mg/dL (unit assumed)", "description": "[0182]7 week-old female ICR mice were intra-peritoneally injected with STZ (40 mg\\Kg) for 5 consecutive days. Non-diabetic mice received citrate buffer (pH 4.3, cold), which served as the vehicle controls for this study. AGS-500 (6 mg\\Kg) was then administered subcutaneously every 2 days, for 5 months, on the first day after STZ administration. A further control group, where DMSO was administered in accordance with this regimen, was included. Mice were divided into the following 6 groups (10 mice per group except STZ only-5 mice): • STZ only • STZ+DMSO • Citrate+DMSO 1% every day • STZ+AGS-499 (6 mg/kg) injected every day S.C • STZ+AGS-500 (6 mg/kg) injected every day S.C • STZ+AGS-500 (6 mg/kg) injected every other day S.C Mice were weighed and blood glucose levels were measured using a free style glucometer. Food consumption was also measured 24 hours prior to STZ injection. The concentration of STZ to be injected was calculated. STZ at 40 mg/kg was injected ip for 5 consecutive days. AGS treatment was administered one day following the last STZ injection. The establishment of diabetes was validated by the assessment of blood glucose levels performed every 3 days (at the beginning) and once a week after 59 days from the initiation of the experiment. Blood glucose levels over 200 mg/dl (measured 3 consecutive times) indicated a diabetic state. At 80 days from the initiation of the experiments each group was divided to 2 subgroups which received either insulin (4 units/kg) or acetic acid (0.015%) both in HEPES buffer (pH 7.45) injected every 48 hours. Mice were sacrificed after 5 months from the initiation of the experiments. Blood glucose levels were monitored every 3 days. Ten weeks after the beginning of this study, each group was divided into 2 sub-groups, one of each also received insulin (4 U\\Kg) every 2 days, except for the non-diabetic sub-groups. Acetic acid (1%) served as the vehicle control."}, "[4]": {"test_system": "STZ-induced diabetic ICR mice", "test": "Glucose Tolerance Test (GTT) in STZ diabetic mice after 2 and 5 months", "conditions": "for Improvement (fold): GTT after 2 months; for Fold of Improvement: GTT after 5 months; for Time needed for the Pancreas to cope glucose load after 5 months / Time needed for the Pancreas to cope with glucose load after 2 months: GTT", "description": "Glucose Tolerance Test: Animals were fasted for 12 hr with free access to water. Blood-glucose levels after fast were measured and then the animals received an i.p. injection of glucose (1.5 g/kg). Blood samples were taken at several intervals (for the duration of 2 hr), when glucose levels above 200 mg/dl at 2 hr confirmed a diagnosis of diabetes.\n[…] Mice were subjected to 12 hours fast (with water) weighed, blood glucose level was measured and Glucose at 1.5 gr/kg in no more than 100 μl was injected IP. Blood glucose levels were measured at 10, 20, 30, 60, 90 and 120 min after glucose injection. glucose tolerance test."}, "[5]": {"test_system": "STZ-induced diabetic ICR mice", "test": "Glucose tolerance test in STZ mice after short course (2 weeks) AGS treatment", "description": "as §1, §2\nGlucose tolerance tests were also performed as follows: After two weeks mice were fasted for 12 hours, then injected with D-glucose (1.5 g/Kg, IP) and blood glucose levels were examined at 0, 10, 20, 30, 60, 90 and 120 minutes, in order to evaluate pancreatic function."}}}
{"smiles": "CC(c1cc(Br)c(O)c(Br)c1)(c1cc(Br)c(O)c(Br)c1)c1cc(Br)c(O)c(Br)c1", "note": "[AGS-500, 1,1,1-tris (4-hydroxy-3,5-dibromo-phenyl)-ethane]", "values": [{"measurement": "circulating glucose levels over time", "setting": "[1]; 6 mg/Kg every other day, short course (2 weeks), FIG. 13-1", "result": "lowering circulating glucose levels significantly"}, {"measurement": "circulating glucose levels over time, combined with insulin therapy", "setting": "[1]; short course, insulin 0.5-6 units/Kg, FIG. 13-2", "result": "synergistic contribution"}, {"measurement": "β-cell Mass in STZ-injected mice", "setting": "[2]; immunofluorescence, FIG. 5C", "result": "preserved β-cell Mass"}, {"measurement": "No of insulin expressing beta islets/mouse", "setting": "[2]; no insulin, daily", "result": 5.6}, {"measurement": "increase in Insulin expressing Beta islets", "setting": "[2]; no insulin, daily", "result": 215, "unit": "%"}, {"measurement": "No of insulin expressing beta islets/mouse", "setting": "[2]; no insulin, every 48 hrs", "result": 5}, {"measurement": "increase in Insulin expressing Beta islets", "setting": "[2]; no insulin, every 48 hrs", "result": 192, "unit": "%"}, {"measurement": "No of insulin expressing beta islets/mouse", "setting": "[2]; with insulin, AGS daily", "result": 2.5}, {"measurement": "No of insulin expressing beta islets/mouse", "setting": "[2]; with insulin, AGS every 48 hrs", "result": 3}, {"measurement": "increase in Insulin expressing Beta islets", "setting": "[2]; with insulin, AGS every 48 hrs", "result": 115, "unit": "%"}, {"measurement": "blood glucose levels with time", "setting": "[3]; AGS 500 every 48 hrs, without insulin", "result": "best effect in reducing blood glucose levels with time"}, {"measurement": "circulating glucose levels, AGS-500 alone versus combined AGS-500 and insulin", "setting": "[3]; FIG. 2F", "result": "greatest therapeutic effect"}, {"measurement": "% reduction in blood glucose level", "setting": "[3]; 6 mg/kg s.c. daily", "result": 20, "unit": "%"}, {"measurement": "Blood glucose level Average", "setting": "[3]; 6 mg/kg s.c. daily", "result": 317.4}, {"measurement": "% reduction in blood glucose level", "setting": "[3]; 6 mg/kg s.c. every 48 hrs", "result": 32, "unit": "%"}, {"measurement": "Blood glucose level Average", "setting": "[3]; 6 mg/kg s.c. every 48 hrs", "result": 270}, {"measurement": "% reduction In blood Glucose 101 day", "setting": "[3]; no insulin, daily", "result": 15, "unit": "%"}, {"measurement": "Blood Glucose At 101 day", "setting": "[3]; no insulin, daily", "result": 600}, {"measurement": "Blood Glucose At 111 day", "setting": "[3]; no insulin, daily", "result": 450}, {"measurement": "reduction In blood Glucose 111 day", "setting": "[3]; no insulin, daily", "result": 25, "unit": "%"}, {"measurement": "% reduction In blood Glucose 101 day", "setting": "[3]; no insulin, every 48 hrs", "result": 43, "unit": "%"}, {"measurement": "Blood Glucose At 101 day", "setting": "[3]; no insulin, every 48 hrs", "result": 400}, {"measurement": "Blood Glucose At 111 day", "setting": "[3]; no insulin, every 48 hrs", "result": 390}, {"measurement": "reduction In blood Glucose 111 day", "setting": "[3]; no insulin, every 48 hrs", "result": 35, "unit": "%"}, {"measurement": "Blood Glucose At 101 day", "setting": "[3]; with insulin (4 units/kg every 48 hours), AGS daily", "result": 460}, {"measurement": "% reduction In blood Glucose 101 day", "setting": "[3]; with insulin, AGS daily", "result": 34, "unit": "%"}, {"measurement": "Blood Glucose At 111 day", "setting": "[3]; with insulin, AGS daily", "result": 400}, {"measurement": "reduction In blood Glucose 111 day", "setting": "[3]; with insulin, AGS daily", "result": 34, "unit": "%"}, {"measurement": "% reduction In blood Glucose 101 day", "setting": "[3]; with insulin, AGS every 48 hrs", "result": 32, "unit": "%"}, {"measurement": "Blood Glucose At 101 day", "setting": "[3]; with insulin, AGS every 48 hrs", "result": 480}, {"measurement": "Blood Glucose At 111 day", "setting": "[3]; with insulin, AGS every 48 hrs", "result": 400}, {"measurement": "reduction In blood Glucose 111 day", "setting": "[3]; with insulin, AGS every 48 hrs", "result": 34, "unit": "%"}, {"measurement": "Improvement (fold)", "setting": "[4]; daily", "result": 1.5, "unit": "fold"}, {"measurement": "Improvement (fold)", "setting": "[4]; every 48 hrs", "result": 3, "unit": "fold"}, {"measurement": "Fold of Improvement", "setting": "[4]; daily", "result": 3, "unit": "fold"}, {"measurement": "Fold of Improvement", "setting": "[4]; every 48 hrs", "result": "normal"}, {"measurement": "Time needed for the Pancreas to cope glucose load after 5 months", "setting": "[4]; daily", "result": 30, "unit": "min"}, {"measurement": "Time needed for the Pancreas to cope with glucose load after 2 months", "setting": "[4]; daily", "result": 60, "unit": "min"}, {"measurement": "Time needed for the Pancreas to cope glucose load after 5 months", "setting": "[4]; every 48 hrs", "result": 20, "unit": "min"}, {"measurement": "Time needed for the Pancreas to cope with glucose load after 2 months", "setting": "[4]; every 48 hrs", "result": 30, "unit": "min"}, {"measurement": "GTT test performed after 5 months", "setting": "[4]; treatment every 48 hours, FIG. 4", "result": "significant improvement in the GTT test"}, {"measurement": "mean blood glucose levels in a glucose tolerance test", "setting": "[5]; 6 mg/Kg subcutaneously or orally every other day, FIG. 11", "result": "reduced mean blood glucose levels"}, {"measurement": "effect of adding insulin on circulating glucose levels in a glucose tolerance test", "setting": "[5]; AGS subcutaneously (AGS500 also orally), FIG. 12", "result": "adding insulin did not appreciably lower the circulating levels"}]}
